Measurements published in patent US9096565B2, “Inhibitors of histone deacetylase” (MethylGene Inc., priority 2007, dated 2015).

Molecular target: one or more of HDAC-4, HDAC-5, HDAC-6, HDAC-7, HDAC-8, HDAC-9, HDAC-10 and HDAC-11
Experiment: Inhibition of histone deacetylase enzymatic activity (summary statement over isoforms)
Type: biochemical
Conditions: Table 3, selected examples; HDAC isoform not given
Description: The following protocol is used to assay the compounds of the invention.
The mixture is pre-incubated for 5 minutes at room temperature. The reaction is started by bringing the temperature to 37° C. and adding 15 μL substrate. Total reaction volume is 50 μL.
A 30 mM stock of Boc-Lys(trifluoroacetyl)-AMC substrate is prepared in DMSO. […] Reaction is started by adding 18 μL Boc-Lys(trifluoroacetyl)-AMC substrate and incubating at 37° C. for 20-30 minutes. The reaction is stopped by adding 50 μL trypsin (1 mg/mL) and a known HDAC inhibitor.

Molecule | IC50
COc1ccc(N2CCN(c3ccc(C(C(=O)NO)c4ccccc4)cc3)CC2)cc1 (centres unmarked) [Compound 5-84, N-hydroxy-2-(4-(4-(4-methoxyphenyl)piperazin-1-yl)phenyl)-2-phenylacetamide] | < 1000 nM
O=C(NO)C(c1ccccc1)c1ccc(N2CCN(Cc3ccc4c(c3)OCO4)CC2)cc1 (centres unmarked) [Compound 5-76, 2-(4-(4-(benzo[d][1,3]dioxol-5-ylmethyl)piperazin-1-yl)phenyl)-N-hydroxy-2-phenylacetamide] | < 1000 nM
O=C(NO)C(c1ccccc1)c1ccc(-c2ccncc2)cc1 (centres unmarked) [Compound 5-10, N-hydroxy-2-phenyl-2-(4-(pyridin-4-yl)phenyl)acetamide] | < 1000 nM
O=C(NO)C(c1ccccc1)N1CCN(c2ncc(-c3ccccc3)cn2)CC1 (centres unmarked) [Compound 5-11, N-hydroxy-2-phenyl-2-(4-(5-phenylpyrimidin-2-yl)piperazin-1-yl)acetamide] | < 1000 nM
O=C(NO)C(Sc1ccc2ccccc2c1)c1ccccc1 (centres unmarked) [Compound 5-28, N-hydroxy-2-(naphthalen-2-ylthio)-2-phenylacetamide] | < 1000 nM
O=C(NO)C(c1ccccc1)c1cccc(N2CCN(c3ccc(F)cc3)CC2)c1 (centres unmarked) [Compound 3-78, 2-(3-(4-(4-fluorophenyl)piperazin-1-yl)phenyl)-N-hydroxy-2-phenylacetamide] | 1000 to 15000 nM
CC(C)CCOc1cccc(C(C(=O)NO)c2ccccc2)c1 (centres unmarked) [Compound 3-30, N-hydroxy-2-(3-(isopentyloxy)phenyl)-2-phenylacetamide] | 1000 to 15000 nM
COc1ccc(-c2cccc(C(C(=O)NO)c3ccccc3)c2)cc1OC (centres unmarked) [Compound 2-106, 2-(3′,4′-dimethoxybiphenyl-3-yl)-N-hydroxy-2-phenylacetamide] | < 1000 nM
O=C(NO)C(c1ccccc1)c1ccc(N2C[C@@H]3C[C@]3(c3ccc(Cl)c(Cl)c3)C2)cc1 (stereo partly drawn) [Compound 6-16, 2-(4-((1S,5R)-1-(3,4-dichlorophenyl)-3-azabicyclo[3.1.0]hexan-3-yl)phenyl)-N-hydroxy-2-phenylacetamide] | < 1000 nM
O=C(NO)C(c1ccccc1)c1cccc(OCc2cccc(Cl)c2)c1 (centres unmarked) [Compound 3-10, 2-(3-(3-chlorobenzyloxy)phenyl)-N-hydroxy-2-phenylacetamide] | < 1000 nM
O=C(NO)C1(c2ccc(F)cc2)CCCC1 [Compound 5-120, 1-(4-fluorophenyl)-N-hydroxycyclopentanecarboxamide] | 1000 to 15000 nM
COc1cccc(C(C(=O)NO)c2ccc(N3CCOCC3)cc2)c1 (centres unmarked) [Compound 5-113, N-hydroxy-2-(3-methoxyphenyl)-2-(4-morpholinophenyl)acetamide] | < 1000 nM
O=C(NO)C(Sc1ccc(C(F)(F)F)cn1)c1ccccc1 (centres unmarked) [Compound 2-47, N-hydroxy-2-phenyl-2-(5-(trifluoromethyl)pyridin-2-ylthio)acetamide] | 1000 to 15000 nM
O=C(NO)C(c1ccccc1)c1ccc(NCc2ccccn2)cc1 (centres unmarked) [Compound 3-81, N-hydroxy-2-phenyl-2-(4-(pyridin-2-ylmethylamino)phenyl)acetamide] | < 1000 nM
O=C(NO)C(c1ccccc1)N1CCN(Cc2cccnc2)CC1 (centres unmarked) [Compound 2-40, N-hydroxy-2-phenyl-2-(4-(pyridin-3-ylmethyl)piperazin-1-yl)acetamide] | 1000 to 15000 nM
O=C(NO)C(c1ccccc1)N1Cc2ccccc2C1 (centres unmarked) [Compound 1-22, N-hydroxy-2-(isoindolin-2-yl)-2-phenylacetamide] | 1000 to 15000 nM
Cc1cc(C(=O)Nc2cccc(C(C(=O)NO)c3ccccc3)c2)c(C)o1 (centres unmarked) [Compound 2-64, N-(3-(2-(hydroxyamino)-2-oxo-1-phenylethyl)phenyl)-2,5-dimethylfuran-3-carboxamide] | 1000 to 15000 nM
O=C(NO)C(c1ccccc1)c1ccc(OCc2cccc(Cl)c2)cc1 (centres unmarked) [Compound 3-66, 2-(4-(3-chlorobenzyloxy)phenyl)-N-hydroxy-2-phenylacetamide] | < 1000 nM
2-(3-(benzo[d][1,3]dioxol-5-ylmethylbenzo[d][1,3]dioxol-5-ylmethoxy)phenyl)-N-hydroxy-2-phenylacetamide [Compound 3-7] | < 1000 nM
CC(C)(C)c1ccc(COc2ccc(C(C(=O)NO)c3ccccc3)cc2)cc1 (centres unmarked) [Compound 3-70, 2-(4-(4-tert-butylbenzyloxy)phenyl)-N-hydroxy-2-phenylacetamide] | < 1000 nM
O=C(NO)C(c1ccccc1)N1CCN(C(=O)c2ccccc2)CC1 (centres unmarked) [Compound 5-42, 2-(4-benzoylpiperazin-1-yl)-N-hydroxy-2-phenylacetamide] | 1000 to 15000 nM
C#CCOc1ccc(C(C(=O)NO)c2ccccc2)cc1 (centres unmarked) [Compound 3-45, N-hydroxy-2-phenyl-2-(4-(prop-2-ynyloxy)phenyl)acetamide] | < 1000 nM
CC(C(=O)NO)(c1ccccc1)c1ccccc1 [Compound 1-14, N-hydroxy-2,2-diphenylpropanamide] | < 1000 nM
CCCCOc1ccc(C#Cc2ccc(C(C(=O)NO)c3ccccc3)cc2)cc1 (centres unmarked) [Compound 2-99, 2-(4-((4-butoxyphenyl)ethynyl)phenyl)-N-hydroxy-2-phenylacetamide] | < 1000 nM

Molecule | IC50
COc1ccc(OC(C(=O)NO)c2ccccc2)cc1 (centres unmarked) [Compound 7-11, N-hydroxy-2-(4-methoxyphenoxy)-2-phenylacetamide] | 1000 to 15000 nM
O=C(NO)C(c1ccccc1)c1nc2cc(Cl)c(F)cc2[nH]1 (centres unmarked) [Compound 1-25, 2-(5-chloro-6-fluoro-1H-benzo[d]imidazol-2-yl)-N-hydroxy-2-phenylacetamide] | 1000 to 15000 nM
COc1cccc(C(C(=O)NO)c2ccccc2)c1 (centres unmarked) [Compound 3-21, N-hydroxy-2-(3-methoxyphenyl)-2-phenylacetamide] | 1000 to 15000 nM
COc1ccc(OC(C(=O)NO)c2ccccc2)cc1OC (centres unmarked) [Compound 7-42, 2-(3,4-dimethoxyphenoxy)-N-hydroxy-2-phenylacetamide] | 1000 to 15000 nM
Cc1ccc(S(=O)(=O)N2CCN(C3(C(=O)NO)CCc4ccccc43)CC2)cc1 (centres unmarked) [Compound 6-18, N-hydroxy-1-(4-(p-tolylsulfonyl)piperazin-1-yl)-2,3-dihydro-1H-indene-1-carboxamide] | 1000 to 15000 nM
O=C(NO)C(c1ccccc1)c1nnc(-c2ccc3c(c2)OCO3)s1 (centres unmarked) [Compound 5-38, 2-(5-(benzo[d][1,3]dioxol-5-yl)-1,3,4-thiadiazol-2-yl)-N-hydroxy-2-phenylacetamide] | < 1000 nM
O=C(NO)C(Oc1ccc2c(c1)CCCC2)c1ccccc1 (centres unmarked) [Compound 7-36, N-hydroxy-2-phenyl-2-(5,6,7,8-tetrahydronaphthalen-2-yloxy)acetamide] | 1000 to 15000 nM
O=C(NO)C(c1ccccc1)N1CCC(Oc2ccccc2)CC1 (centres unmarked) [Compound 1-43, N-hydroxy-2-(4-phenoxypiperidin-1-yl)-2-phenylacetamide] | < 1000 nM
O=C(NO)C(c1ccccc1)c1cccc(NCc2ccccc2)c1 (centres unmarked) [Compound 2-79, 2-(3-(benzylamino)phenyl)-N-hydroxy-2-phenylacetamide] | 1000 to 15000 nM
CC(C)CC(=O)Nc1cccc(C(C(=O)NO)c2ccccc2)c1 (centres unmarked) [Compound 2-54, N-(3-(2-(hydroxyamino)-2-oxo-1-phenylethyl)phenyl)-3-methylbutanamide] | 1000 to 15000 nM
O=C(NO)C(c1ccccc1)c1cccc(OC2CCCC2)c1 (centres unmarked) [Compound 3-29, 2-(3-(cyclopentyloxy)phenyl)-N-hydroxy-2-phenylacetamide] | 1000 to 15000 nM
O=C(NO)C(Sc1nc(-c2ccccc2)c(-c2ccccc2)[nH]1)c1ccccc1 (centres unmarked) [Compound 1-42, 2-(4,5-diphenyl-1H-imidazol-2-ylthio)-N-hydroxy-2-phenylacetamide] | 1000 to 15000 nM
O=C(NO)C(Oc1ccccc1)c1ccccc1 (centres unmarked) [Compound 1-2, N-hydroxy-2-phenoxy-2-phenylacetamide] | < 1000 nM
O=C(NO)C(c1ccccc1)N1CCC(O)(c2ccccc2)CC1 (centres unmarked) [Compound 5-1, N-hydroxy-2-(4-hydroxy-4-phenylpiperidin-1-yl)-2-phenylacetamide] | < 1000 nM
O=C(NO)C(c1ccccc1)c1ccc(OCCN2CCCC2)cc1 (centres unmarked) [Compound 5-96, N-hydroxy-2-phenyl-2-(4-(2-(pyrrolidin-1-yl)ethoxy)phenyl)acetamide] | < 1000 nM
C=CCCOc1cccc(C(C(=O)NO)c2ccccc2)c1 (centres unmarked) [Compound 3-26, 2-(3-(but-3-enyloxy)phenyl)-N-hydroxy-2-phenylacetamide] | 1000 to 15000 nM
C=CCCOc1ccc(C(C(=O)NO)c2ccccc2)cc1 (centres unmarked) [Compound 3-49, 2-(4-(but-3-enyloxy)phenyl)-N-hydroxy-2-phenylacetamide] | < 1000 nM
O=C(NO)C(c1ccccc1)c1ccc(N2CCN(c3ccc(F)cc3)CC2)cc1 (centres unmarked) [Compound 3-84, 2-(4-(4-(4-fluorophenyl)piperazin-1-yl)phenyl)-N-hydroxy-2-phenylacetamide] | < 1000 nM
O=C(NO)C(c1ccccc1)N1CCOCC1 (centres unmarked) [Compound 5-113b, N-hydroxy-2-morpholino-2-phenylacetamide] | 1000 to 15000 nM
O=C(NO)C(c1ccccc1)c1ccc(N2CCC2)cc1 (centres unmarked) [Compound 6-39, 2-(4-(azetidin-1-yl)phenyl)-N-hydroxy-2-phenylacetamide] | < 1000 nM
Cc1cc(C)nc(N2CCN(C(C(=O)NO)c3ccccc3)CC2)n1 (centres unmarked) [Compound 5-80, 2-(4-(4,6-dimethylpyrimidin-2-yl)piperazin-1-yl)-N-hydroxy-2-phenylacetamide] | < 1000 nM
Cc1cccc(C(C(=O)NO)c2ccc(N3CCOCC3)cc2)c1 (centres unmarked) [Compound 5-125, N-hydroxy-2-(4-morpholinophenyl)-2-m-tolylacetamide] | < 1000 nM
CCSc1ccc(-c2cccc(C(C(=O)NO)c3ccccc3)c2)cc1 (centres unmarked) [Compound 2-107, 2-(4′-(ethylthio)biphenyl-3-yl)-N-hydroxy-2-phenylacetamide] | < 1000 nM
